Laboratory results as given in ChEMBL document CHEMBL5131567, “3,5,7-Substituted Pyrazolo[4,3-d]Pyrimidine Inhibitors of Cyclin-Dependent Kinases and Cyclin K Degraders” (J Med Chem, 2022).
The source made the active and inactive calls. The rule behind the calls is not given here.

Assays:
[1] = Antiproliferative activity against human UPF1H cells assessed as cell growth inhibition measured after 72 hrs by resazurin dye based microplate reader analysis; type: functional
[2] = target: Cyclin-dependent kinase 2/cyclin E1 (Homo sapiens, UniProt P24941); assay: Inhibition of His-tagged CDK2/cyclin E1 (unknown origin) expressed in Sf9 cells using histone H1 as substrate in presence of ATP and [gamma33-P]ATP by radioisotope filter binding assay; type: cell-based
[3] = Antiproliferative activity against human MINO cells assessed as cell growth inhibition measured after 72 hrs by resazurin dye based microplate reader analysis; type: functional
SUD4 = assay: Antiproliferative activity against human SU-DHL-4 cells assessed as cell growth inhibition measured after 72 hrs by resazurin dye based microplate reader analysis; type: functional
OCI-LY19 = assay: Antiproliferative activity against human OCILY19 cells assessed as cell growth inhibition measured after 72 hrs by resazurin dye based microplate reader analysis; type: functional
[4] = Inhibition of GST-tagged human CDK5/p25 expressed in Sf9 cells using histone H1 as substrate in presence of ATP and [gamma33-P] ATP by radioisotope filter binding assay
[5] = Antiproliferative activity against human OCI-Ly2 cells assessed as cell growth inhibition measured after 72 hrs by resazurin dye based microplate reader analysis; type: functional
MINO = assay: Downregulation of cyclin K levels in human MINO cells up to 5 uM incubated for 2 hrs by immunoblotting analysis; type: functional, cell-based
DB = assay: Antiproliferative activity against human DB cells assessed as cell growth inhibition measured after 72 hrs by resazurin dye based microplate reader analysis; type: functional
NU-DUL-1 = assay: Antiproliferative activity against human NU-DUL-1 cells assessed as cell growth inhibition measured after 72 hrs by resazurin dye based microplate reader analysis; type: functional
[6] = Antiproliferative activity against human Ri-1 cells assessed as cell growth inhibition measured after 72 hrs by resazurin dye based microplate reader analysis; type: functional
[7] = target: Cyclin-dependent kinase 13/Cyclin-K (Homo sapiens, UniProt Q14004); assay: Inhibition of GST-tagged human CDK13/Cyclin K expressed in Sf9 cells using RBER-IRStide peptide as substrate in presence of ATP and [gamma33-P] ATP by radioisotope filter binding assay
U2932 = assay: Antiproliferative activity against human U2932 cells assessed as cell growth inhibition measured after 72 hrs by resazurin dye based microplate reader analysis; type: functional
CDK12/Cyclin K = CDK12/Cyclin K (Homo sapiens, UniProt Q9NYV4); assay: Inhibition of GST-tagged human CDK12/Cyclin K expressed in Sf9 cells using RBER-IRStide peptide as substrate in presence of ATP and [gamma33-P] ATP by radioisotope filter binding assay
[8] = target: Cyclin-dependent kinase 2/G1/S-specific cyclin-D1 (Homo sapiens, UniProt P24385+P24941); type: cell-based, Sf9
CDK9/cyclin T1 = CDK9/cyclin T1 (Homo sapiens, UniProt P50750); assay: Inhibition of GST-tagged human CDK9/Cyclin T1 expressed in Sf9 cells using (YSPTSPS)2KK peptide as substrate in presence of ATP and [gamma33-P] ATP by radioisotope filter binding assay; type: cell-based
[9] = target: Glycogen synthase kinase-3 beta (Homo sapiens) (UniProt P49841); assay: Inhibition of human GSK3beta (2 to 420 residues) expressed in Sf21 cells at 1 uM using YRRAAVPPSPSLSRHSSPHQS(PO4)EDEEE peptide as substrate incubated for 30 mins in presence of [gamma33P]ATP by scintillation based radioactive filter binding assay relative to control
[10] = target: Serine/threonine-protein kinase PAK 4 (Homo sapiens) (UniProt O96013); assay: Inhibition of human PAK4 (2 to 591 residues) expressed in Escherichia coli expression system at 1 uM using RRRLSFAEPG peptide as substrate incubated for 30 mins in presence of [gamma33P]ATP by scintillation based radioactive filter binding assay relative to control
[11] = target: Dual specificity tyrosine-phosphorylation-regulated kinase 1A (Homo sapiens) (UniProt Q13627); assay: Inhibition of human DYRK1A (1 to 502 residues) expressed in Escherichia coli expression system at 1 uM using KKISGRLSPIMTEQ peptide as substrate incubated for 30 mins in presence of [gamma33P]ATP by scintillation based radioactive filter binding assay relative to control

Chain of CDK9/cyclin T1 (O60563 whole entry, the tested form may be a part): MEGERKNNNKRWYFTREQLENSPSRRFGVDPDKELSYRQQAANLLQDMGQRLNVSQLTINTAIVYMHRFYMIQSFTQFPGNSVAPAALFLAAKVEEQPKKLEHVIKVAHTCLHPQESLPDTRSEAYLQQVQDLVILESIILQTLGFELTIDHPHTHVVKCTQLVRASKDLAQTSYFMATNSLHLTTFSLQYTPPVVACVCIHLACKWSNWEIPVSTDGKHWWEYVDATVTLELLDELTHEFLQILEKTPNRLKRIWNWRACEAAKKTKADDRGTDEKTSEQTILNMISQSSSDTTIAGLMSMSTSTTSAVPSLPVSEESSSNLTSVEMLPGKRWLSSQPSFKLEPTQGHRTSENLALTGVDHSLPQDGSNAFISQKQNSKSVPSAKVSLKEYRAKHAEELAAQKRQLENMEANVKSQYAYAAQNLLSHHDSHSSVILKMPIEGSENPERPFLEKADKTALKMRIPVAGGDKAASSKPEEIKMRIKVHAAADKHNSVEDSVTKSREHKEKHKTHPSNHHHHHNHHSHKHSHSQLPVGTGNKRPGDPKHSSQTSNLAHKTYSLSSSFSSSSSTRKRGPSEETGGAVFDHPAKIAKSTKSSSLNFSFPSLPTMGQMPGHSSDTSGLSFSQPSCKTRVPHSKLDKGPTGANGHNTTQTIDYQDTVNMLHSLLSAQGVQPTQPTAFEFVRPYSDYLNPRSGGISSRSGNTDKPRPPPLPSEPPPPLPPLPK
Chain of CDK9/cyclin T1 (P50750 whole entry, the tested form may be a part): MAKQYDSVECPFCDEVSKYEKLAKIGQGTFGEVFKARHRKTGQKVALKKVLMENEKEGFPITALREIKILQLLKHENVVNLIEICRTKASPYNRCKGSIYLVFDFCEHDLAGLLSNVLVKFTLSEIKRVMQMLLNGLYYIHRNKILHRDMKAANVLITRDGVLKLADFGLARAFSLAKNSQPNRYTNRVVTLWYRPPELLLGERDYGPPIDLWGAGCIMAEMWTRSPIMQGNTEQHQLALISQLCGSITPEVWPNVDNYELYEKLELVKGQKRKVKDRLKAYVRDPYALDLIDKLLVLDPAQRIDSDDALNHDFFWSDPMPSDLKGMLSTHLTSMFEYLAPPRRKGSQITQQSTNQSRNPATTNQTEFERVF
Chain of CDK12/Cyclin K (O75909 whole entry): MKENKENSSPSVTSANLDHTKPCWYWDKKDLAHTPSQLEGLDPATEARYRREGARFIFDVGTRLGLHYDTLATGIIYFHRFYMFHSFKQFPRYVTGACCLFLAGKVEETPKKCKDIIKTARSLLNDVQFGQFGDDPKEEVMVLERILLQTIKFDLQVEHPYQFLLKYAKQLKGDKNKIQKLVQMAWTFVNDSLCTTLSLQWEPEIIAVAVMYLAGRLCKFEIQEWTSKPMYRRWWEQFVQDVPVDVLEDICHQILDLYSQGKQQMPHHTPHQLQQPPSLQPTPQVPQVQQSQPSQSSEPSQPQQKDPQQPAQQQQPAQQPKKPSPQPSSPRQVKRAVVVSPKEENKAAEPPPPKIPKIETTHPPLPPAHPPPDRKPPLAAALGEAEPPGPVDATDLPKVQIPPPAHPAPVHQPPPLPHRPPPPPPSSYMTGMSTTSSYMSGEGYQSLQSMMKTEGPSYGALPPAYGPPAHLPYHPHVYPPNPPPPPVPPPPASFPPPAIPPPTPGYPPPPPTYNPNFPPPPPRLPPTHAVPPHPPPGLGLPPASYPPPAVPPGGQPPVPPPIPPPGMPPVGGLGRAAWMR
Chain of CDK12/Cyclin K (Q9NYV4 whole entry): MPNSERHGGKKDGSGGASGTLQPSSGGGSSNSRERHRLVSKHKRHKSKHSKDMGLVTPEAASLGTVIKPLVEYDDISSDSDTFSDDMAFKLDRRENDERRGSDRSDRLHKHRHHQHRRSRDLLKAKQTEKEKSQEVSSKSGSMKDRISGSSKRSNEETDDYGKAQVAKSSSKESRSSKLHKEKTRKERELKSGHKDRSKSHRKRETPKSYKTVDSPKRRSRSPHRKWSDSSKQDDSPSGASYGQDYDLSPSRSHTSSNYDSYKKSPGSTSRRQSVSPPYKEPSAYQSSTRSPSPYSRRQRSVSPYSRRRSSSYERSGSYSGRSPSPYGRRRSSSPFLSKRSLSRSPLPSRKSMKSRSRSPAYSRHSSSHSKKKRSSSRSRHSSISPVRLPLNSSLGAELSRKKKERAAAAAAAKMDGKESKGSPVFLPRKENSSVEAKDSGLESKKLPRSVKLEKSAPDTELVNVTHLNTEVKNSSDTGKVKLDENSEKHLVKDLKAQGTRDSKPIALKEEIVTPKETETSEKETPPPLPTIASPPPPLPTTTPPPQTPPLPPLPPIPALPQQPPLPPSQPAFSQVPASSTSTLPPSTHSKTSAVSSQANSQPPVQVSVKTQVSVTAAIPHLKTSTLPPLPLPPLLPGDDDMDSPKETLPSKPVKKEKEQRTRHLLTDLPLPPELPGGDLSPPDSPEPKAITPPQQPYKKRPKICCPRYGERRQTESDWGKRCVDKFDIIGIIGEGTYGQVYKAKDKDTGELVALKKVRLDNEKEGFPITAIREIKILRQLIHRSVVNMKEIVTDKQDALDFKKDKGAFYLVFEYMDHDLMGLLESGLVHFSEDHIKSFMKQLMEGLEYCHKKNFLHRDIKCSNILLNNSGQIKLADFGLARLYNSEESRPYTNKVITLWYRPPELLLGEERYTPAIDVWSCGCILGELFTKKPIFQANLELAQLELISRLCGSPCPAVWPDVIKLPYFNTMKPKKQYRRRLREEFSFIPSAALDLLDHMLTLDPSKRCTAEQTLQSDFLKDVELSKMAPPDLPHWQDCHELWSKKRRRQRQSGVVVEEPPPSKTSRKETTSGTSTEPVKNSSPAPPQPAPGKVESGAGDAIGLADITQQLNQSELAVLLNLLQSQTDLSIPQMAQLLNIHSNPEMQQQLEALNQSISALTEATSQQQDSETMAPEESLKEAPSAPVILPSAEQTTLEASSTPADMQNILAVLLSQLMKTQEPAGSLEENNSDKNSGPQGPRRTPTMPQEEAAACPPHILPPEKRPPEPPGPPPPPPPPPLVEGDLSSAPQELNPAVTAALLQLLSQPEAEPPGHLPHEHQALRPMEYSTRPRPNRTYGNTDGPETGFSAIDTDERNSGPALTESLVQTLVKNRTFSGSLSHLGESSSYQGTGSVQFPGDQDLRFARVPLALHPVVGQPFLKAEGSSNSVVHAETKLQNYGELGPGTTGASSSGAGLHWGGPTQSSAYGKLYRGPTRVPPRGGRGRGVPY
Chain of Cyclin-dependent kinase 13/Cyclin-K (Q14004 whole entry): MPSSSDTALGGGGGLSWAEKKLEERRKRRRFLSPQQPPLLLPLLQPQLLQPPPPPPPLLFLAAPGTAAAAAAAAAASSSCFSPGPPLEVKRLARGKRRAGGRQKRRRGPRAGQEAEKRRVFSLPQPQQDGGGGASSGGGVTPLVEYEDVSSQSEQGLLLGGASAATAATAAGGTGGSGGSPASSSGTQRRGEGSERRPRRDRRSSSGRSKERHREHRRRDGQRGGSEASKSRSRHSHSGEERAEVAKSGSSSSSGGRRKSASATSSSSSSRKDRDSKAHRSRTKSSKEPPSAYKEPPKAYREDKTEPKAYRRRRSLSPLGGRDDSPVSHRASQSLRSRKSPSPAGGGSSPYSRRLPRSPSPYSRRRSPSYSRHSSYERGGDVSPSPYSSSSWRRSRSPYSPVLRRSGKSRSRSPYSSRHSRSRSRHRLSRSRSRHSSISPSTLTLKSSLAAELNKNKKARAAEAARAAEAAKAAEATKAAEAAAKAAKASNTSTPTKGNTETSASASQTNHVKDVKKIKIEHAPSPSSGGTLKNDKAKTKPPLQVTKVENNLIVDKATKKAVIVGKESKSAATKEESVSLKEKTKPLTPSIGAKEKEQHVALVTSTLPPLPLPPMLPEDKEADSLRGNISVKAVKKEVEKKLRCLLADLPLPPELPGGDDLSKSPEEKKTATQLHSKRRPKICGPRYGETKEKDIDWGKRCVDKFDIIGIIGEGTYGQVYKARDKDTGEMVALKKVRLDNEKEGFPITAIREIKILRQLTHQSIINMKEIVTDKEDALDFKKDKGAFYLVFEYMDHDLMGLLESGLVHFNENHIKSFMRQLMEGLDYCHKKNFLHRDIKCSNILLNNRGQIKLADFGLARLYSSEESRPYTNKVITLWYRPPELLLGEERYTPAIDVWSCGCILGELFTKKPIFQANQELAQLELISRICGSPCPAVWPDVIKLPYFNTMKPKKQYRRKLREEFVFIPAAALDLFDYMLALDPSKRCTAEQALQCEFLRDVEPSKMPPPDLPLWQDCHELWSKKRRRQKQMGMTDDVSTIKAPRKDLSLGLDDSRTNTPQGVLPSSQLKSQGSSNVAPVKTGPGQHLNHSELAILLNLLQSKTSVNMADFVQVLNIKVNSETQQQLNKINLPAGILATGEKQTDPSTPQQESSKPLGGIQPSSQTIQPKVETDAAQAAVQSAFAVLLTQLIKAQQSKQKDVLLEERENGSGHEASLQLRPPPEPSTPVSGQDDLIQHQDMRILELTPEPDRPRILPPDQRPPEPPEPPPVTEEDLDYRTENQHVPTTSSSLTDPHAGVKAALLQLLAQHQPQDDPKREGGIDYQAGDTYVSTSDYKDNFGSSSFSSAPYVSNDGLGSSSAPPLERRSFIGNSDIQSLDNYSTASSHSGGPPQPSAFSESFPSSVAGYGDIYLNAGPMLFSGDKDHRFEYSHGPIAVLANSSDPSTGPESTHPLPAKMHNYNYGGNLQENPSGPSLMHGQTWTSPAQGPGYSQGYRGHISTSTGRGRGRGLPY
Chain of Cyclin-dependent kinase 13/Cyclin-K (O75909 whole entry, further chain): as the sequence (O75909 whole entry) above

| Structure (SMILES) | GI50 [1] [nM] | IC50 [2] [nM] | GI50 [3] [nM] | also measured |
| --- | --- | --- | --- | --- |
| CC(C)c1n[nH]c2c(NCc3ccc(-c4c[nH]cn4)cc3)nc(S)nc12 | ≥ 10000 | 464 | ≥ 10000 | – |
| CC(C)c1[nH]nc2c(NCc3ccc(-n4cccn4)cc3)nc(SCC(O)CN)nc12 (stereo not given) | 95 | 6 | 43 | – |
| CC(C)c1[nH]nc2c(NCc3ccc(-n4cccn4)cc3)nc(SCC(O)CO)nc12 (stereo not given) | 26 | 5 | 9 | – |
| CC(C)c1n[nH]c2c(NCc3ccc(-n4ccnc4)cc3)nc(SCCO)nc12 | 6470 | 12 | 1480 | – |
| OCCSc1nc(NCc2ccc(-c3ccccn3)cc2)c2[nH]nc(C3CCC3)c2n1 | 152 | 9 | 58 | – |
| CC(C)c1[nH]nc2c(NCc3ccc(-n4cccn4)cc3)nc(SCC(C)(C)O)nc12 | 87 | – | 34 | – |
| CC(C)c1n[nH]c2c(NCc3ccc(-n4ccnc4)cc3)nc(S)nc12 | ≥ 10000 | 2300 | ≥ 10000 | – |
| CC(C)c1[nH]nc2c(NCc3ccc(-n4cccn4)cc3)nc(S)nc12 | ≥ 10000 | 256 | 5900 | – |
| CCc1cnn2c(NCc3ccc[n+]([O-])c3)cc(N3CCCC[C@H]3CCO)nc12 [DINACICLIB] | 22 | – | 21 | GI50 (SUD4): 9 nM; GI50 (OCI-LY19): 20 nM; IC50 [4]: 13 nM; GI50 [5]: 10 nM; Activity (MINO): Active; GI50 (DB): 14 nM; GI50 (NU-DUL-1): 10 nM; GI50 [6]: 15 nM; IC50 [7]: 21 nM; GI50 (U2932): 11 nM |
| CCC(O)CSc1nc(NCc2ccc(-n3cccn3)cc2)c2n[nH]c(C(C)C)c2n1 (stereo not given) | 591 | 25 | 22 | – |
| CC(C)c1[nH]nc2c(NCc3ccc(-n4cccn4)cc3)nc(SCCO)nc12 | 20 | 5 | 6 | – |
| CC[C@H](CO)Nc1nc(NCc2ccccc2)c2ncn(C(C)C)c2n1 [SELICICLIB] | 3070 | – | 1480 | – |
| CC(C)c1[nH]nc2c(NCc3ccc(-n4cccn4)cc3)nc(S(C)(=O)=O)nc12 | 250 | 53 | 30 | – |
| NCCSc1nc(NCc2ccc(-c3ccccn3)cc2)c2[nH]nc(C3CCCC3)c2n1 | 111 | 12 | 31 | GI50 (SUD4): 180 nM; GI50 (OCI-LY19): 915 nM; IC50 [4]: 127 nM; GI50 [5]: 47 nM; IC50 (CDK12/Cyclin K): 304 nM; GI50 (DB): 107 nM; IC50 [8]: > 1000 nM; IC50 (CDK9/cyclin T1): 38 nM; GI50 (NU-DUL-1): 200 nM; GI50 [6]: 330 nM; IC50 [7]: 334 nM; GI50 (U2932): 265 nM |
| CC(C)c1[nH]nc2c(NCc3ccc(-n4cccn4)cc3)nc(SCCCN(C)C)nc12 | 39 | 75 | 17 | – |
| NCCSc1nc(NCc2ccc(-c3ccccn3)cc2)c2[nH]nc(C3CCC3)c2n1 | 19 | 5 | 11 | GI50 (SUD4): 30 nM; GI50 (OCI-LY19): 350 nM; IC50 [4]: 24 nM; GI50 [5]: 40 nM; IC50 (CDK12/Cyclin K): 29 nM; GI50 (DB): 22 nM; IC50 [8]: 940 nM; IC50 (CDK9/cyclin T1): 12 nM; GI50 (NU-DUL-1): 17 nM; GI50 [6]: 23 nM; IC50 [7]: 12 nM; GI50 (U2932): 44 nM |
| CC(O)CSc1nc(NCc2ccc(-n3cccn3)cc2)c2n[nH]c(C(C)C)c2n1 (stereo not given) | 61 | 6 | 18 | inhibition [9]: > 50%; inhibition [10]: > 50%; GI50 (SUD4): 105 nM; GI50 (OCI-LY19): 101 nM; IC50 [4]: 179 nM; GI50 [5]: 55 nM; IC50 (CDK12/Cyclin K): 156 nM; GI50 (DB): 78 nM; IC50 [8]: > 1000 nM; IC50 (CDK9/cyclin T1): 62 nM; inhibition [11]: > 50%; GI50 (NU-DUL-1): 62 nM; GI50 [6]: 61 nM; IC50 [7]: 122 nM; GI50 (U2932): 59 nM |
| CC(O)CNc1nc(NCc2ccc(-n3cccn3)cc2)c2n[nH]c(C(C)C)c2n1 (stereo not given) | 42 | 37 | 16 | – |
| CC(C)c1[nH]nc2c(NCc3ccc(-n4cccn4)cc3)nc(SCCN)nc12 | 4 | 2 | 1 | – |
| CC(C)c1n[nH]c2c(NCc3ccc(-c4cnccn4)cc3)nc(SCCN)nc12 | 69 | – | 22 | GI50 (SUD4): 62 nM; GI50 (OCI-LY19): 445 nM; IC50 [4]: 157 nM; GI50 [5]: 33 nM; IC50 (CDK12/Cyclin K): 50 nM; GI50 (DB): 75 nM; IC50 [8]: > 1000 nM; IC50 (CDK9/cyclin T1): 23 nM; GI50 (NU-DUL-1): 54 nM; GI50 [6]: 54 nM; IC50 [7]: 22 nM; GI50 (U2932): 93 nM |
| CC(C)c1n[nH]c2c(NCc3ccc(-c4cnccn4)cc3)nc(S)nc12 | ≥ 10000 | 978 | 8900 | – |
| CC(C)c1n[nH]c2c(NCc3ccc(-n4ccnc4)cc3)nc(SCCN)nc12 | 1770 | 4 | 927 | GI50 (SUD4): 435 nM; GI50 (OCI-LY19): 3560 nM; IC50 [4]: 54 nM; GI50 [5]: 170 nM; IC50 (CDK12/Cyclin K): 73 nM; GI50 (DB): 599 nM; IC50 [8]: > 1000 nM; IC50 (CDK9/cyclin T1): 11 nM; GI50 (NU-DUL-1): 384 nM; GI50 [6]: 435 nM; IC50 [7]: 67 nM; GI50 (U2932): 689 nM |
| CC(C)c1n[nH]c2c(NCc3ccc(-c4cnccn4)cc3)nc(SCCO)nc12 | 56 | – | 16 | – |
| CC(C)c1n[nH]c2c(NCc3ccc(-c4c[nH]cn4)cc3)nc(SCCO)nc12 | 1420 | – | 490 | – |
| CC(C)c1[nH]nc2c(NCc3ccc(-n4cccn4)cc3)nc(SCC(N)CN)nc12 (stereo not given) | 580 | 19 | 410 | – |
| CC(C)c1[nH]nc2c(NCc3ccc(-n4cccn4)cc3)nc(SCC(C)(C)N)nc12 | 14 | – | 9 | – |
| CC(C)c1[nH]nc2c(NCc3ccc(-n4cccn4)cc3)nc(SCCN(C)C)nc12 | 84 | – | 18 | – |
| CSc1nc(NCc2ccc(-n3cccn3)cc2)c2n[nH]c(C(C)C)c2n1 | 810 | 24 | 310 | – |
| CN(C)C/C=C/C(=O)Nc1ccc(C(=O)N2CCC[C@@H](Nc3ncc(Cl)c(-c4c[nH]c5ccccc45)n3)C2)cc1 | – | – | – | Activity (MINO): Active |
